Data as given in patent US20140315972A1, “RS)-2-(2-oxo-4-phenylpyrrolidin-1-yl)acetamide compound having modulatory activity with a commensurate effect, pharmaceutical substance (variants) and its application, composition (variants) thereof” (priority 2011, published 2014).
Marks after values point to notes of the source that are not given here.

Columns and labels:
mice [1] = experiment: Acute toxicity, single intraperitoneal injection in male mice; type: in vivo; conditions: male mice 18-24 g; single i.p.
Protocol: Tables 2, 2.1 and 2.2 present the results of acute toxicity studies of the Compounds with active substance content in at least white outbred male mice (body weight 18-24 g) and white outbred rats 30-35 days of age, of both sexes with a single dose. Calculation of toxic doses was made using the Wilcoxon and Litchfield method. Observations were made over 24 hours and 14 days after a single dose.
LD50 in rat pups after intragastric administration was not found. Intragastric administration to rat pups of doses of more than 1000 mg/kg is technically impossible due to the small volume of the stomach (Table 2.2).

cats = type: in vivo; conditions: anesthetized cats; single i.v.; 100 mg/kg (title)
rats = experiment: Ischemic stroke (middle cerebral artery occlusion), McGrow scale; type: in vivo
Source text: The stroke condition was simulated in male rats (270-320 g) at a local cerebral hemorrhage, as a hemorrhagic stroke (intracerebral post-traumatic hematoma) by the method of A. N. Makarenko et al (1990) and at cerebral ischemia with distal occlusion of the middle cerebral artery (Chen S. T., Hsu C. Y., Hogan E. L., Maricq H., Balentine J. D. A model of focal ischemic stroke in the rat reproducible extensive cortical infarction//Stroke.—1989, V. 17, No 4, p. 738-743) as an ischemic stroke. Phenotropil was injected intraperitoneally at hemorrhagic stroke at 100 mg/kg immediately after surgery, and one hour before and two hours after the surgery (at doses of 100, 200 and 300 mg/kg) at ischemic stroke. Control animals were treated adequately with distilled water.

mice [2] = experiment: Hot plate test (pain sensitivity); type: in vivo; conditions: for Latent period (hot plate): mice
Source text: The analgesic effect is present at all studied doses and increases with increasing dose.

Stability during storage = type: physicochemical; conditions: sterile 0.001-3% solutions with cyclodextrin or Tween, ampoules
Protocol: The resulting compositions are stable. The studies were conducted in accordance with regulatory requirements for determination when stored in natural conditions (in a dry, dark place at a temperature not exceeding 30° C.) and using the standard method of accelerated aging.
The crystalline powder of the Phenotropil substances is not volatile, has white, rarely white to slightly yellowish or slightly cream color, bitter taste (bitter taste that disappears in the mouth rather quickly after dissolution, leaving no unpleasant sensations). In the related products, the bitter taste persists. The Compounds are sparingly soluble in water and saline, moderately soluble in 96.0% alcohol and chloroform. Readily soluble in water and saline under heating, but the solutions are not stable during cooling and storage under normal conditions (not more than 2 hours, which is acceptable for the extemporaneous preparations and research), moderately soluble in 5.0% glucose solution, dissolve well in the presence of solubilizers and emulsifiers. Tween80 and cyclodextrins increase solubility in water, especially Tween80, while cyclodextrins have limitations by concentration. […]

[3] = 100 mg/kg i.p. after MCAO, first day
[4] = 100 mg/kg i.p. after MCAO, second day
[5] = 100 mg/kg i.p. after MCAO, third day
[6] = 100 mg/kg i.p. before MCAO, first day
[7] = 100 mg/kg i.p. before MCAO, second day
[8] = 100 mg/kg i.p. before MCAO, third day
[9] = 200 mg/kg i.p. after MCAO, first day
[10] = 200 mg/kg i.p. after MCAO, second day
[11] = 200 mg/kg i.p. after MCAO, third day
[12] = 200 mg/kg i.p. before MCAO, first day
[13] = 200 mg/kg i.p. before MCAO, second day
[14] = 200 mg/kg i.p. before MCAO, third day
[15] = 300 mg/kg i.p. after MCAO, first day
[16] = 300 mg/kg i.p. after MCAO, second day
[17] = 300 mg/kg i.p. after MCAO, third day
[18] = 300 mg/kg i.p. before MCAO, first day
[19] = 300 mg/kg i.p. before MCAO, second day
[20] = 300 mg/kg i.p. before MCAO, third day

SMILES: NC(=O)CN1CC(c2ccccc2)CC1=O (racemic) [Compound 1, (RS)-2-(2-oxo-4-phenylpyrrolidine-1-yl)acetamide]
- LD50 (mice [1]): 1042 (982.9-1102.0) mg/kg
- CCA blood flow (1-2 min) vs background (cats): +26.0%
- SBP (1-2 min) vs background (cats): −24.0%
- SBP (at 4 min) vs background (cats): +14%
- VPR (at 5 min) vs background (cats): −46.0%
- animals (out of 10) with circling movements (rats; [3]): 0*
- animals (out of 10) with lethargy, slowness of functions (rats; [3]): 4*
- animals (out of 10) with tremor (rats; [3]): 2*
- animals (out of 10) with unilateral hemiptosis (rats; [3]): 4
- animals (out of 10) with circling movements (rats; [4]): 0*
- animals (out of 10) with lethargy, slowness of functions (rats; [4]): 3*
- animals (out of 10) with tremor (rats; [4]): 0*
- animals (out of 10) with unilateral hemiptosis (rats; [4]): 5
- animals (out of 10) with circling movements (rats; [5]): 0
- animals (out of 10) with lethargy, slowness of functions (rats; [5]): 2*
- animals (out of 10) with tremor (rats; [5]): 0
- animals (out of 10) with unilateral hemiptosis (rats; [5]): 3
- animals (out of 10) with circling movements (rats; [6]): 0*
- animals (out of 10) with lethargy, slowness of functions (rats; [6]): 2*
- animals (out of 10) with tremor (rats; [6]): 2*
- animals (out of 10) with unilateral hemiptosis (rats; [6]): 4
- animals (out of 10) with circling movements (rats; [7]): 0*
- animals (out of 10) with lethargy, slowness of functions (rats; [7]): 1*
- animals (out of 10) with tremor (rats; [7]): 0*
- animals (out of 10) with unilateral hemiptosis (rats; [7]): 5
- animals (out of 10) with circling movements (rats; [8]): 0
- animals (out of 10) with lethargy, slowness of functions (rats; [8]): 1*
- animals (out of 10) with tremor (rats; [8]): 0
- animals (out of 10) with unilateral hemiptosis (rats; [8]): 3
- animals (out of 10) with circling movements (rats; [9]): 0*
- animals (out of 10) with lethargy, slowness of functions (rats; [9]): 4*
- animals (out of 10) with tremor (rats; [9]): 2*
- animals (out of 10) with unilateral hemiptosis (rats; [9]): 3
- animals (out of 10) with circling movements (rats; [10]): 0*
- animals (out of 10) with lethargy, slowness of functions (rats; [10]): 3*
- animals (out of 10) with tremor (rats; [10]): 0*
- animals (out of 10) with unilateral hemiptosis (rats; [10]): 4
- animals (out of 10) with circling movements (rats; [11]): 0
- animals (out of 10) with lethargy, slowness of functions (rats; [11]): 1*
- animals (out of 10) with tremor (rats; [11]): 0
- animals (out of 10) with unilateral hemiptosis (rats; [11]): 3
- animals (out of 10) with circling movements (rats; [12]): 0*
- animals (out of 10) with lethargy, slowness of functions (rats; [12]): 3*
- animals (out of 10) with tremor (rats; [12]): 3*
- animals (out of 10) with unilateral hemiptosis (rats; [12]): 4
- animals (out of 10) with circling movements (rats; [13]): 0*
- animals (out of 10) with lethargy, slowness of functions (rats; [13]): 2*
- animals (out of 10) with tremor (rats; [13]): 0*
- animals (out of 10) with unilateral hemiptosis (rats; [13]): 4
- animals (out of 10) with circling movements (rats; [14]): 0
- animals (out of 10) with lethargy, slowness of functions (rats; [14]): 0*
- animals (out of 10) with tremor (rats; [14]): 0
- animals (out of 10) with unilateral hemiptosis (rats; [14]): 3
- animals (out of 10) with circling movements (rats; [15]): 0*
- animals (out of 10) with lethargy, slowness of functions (rats; [15]): 4*
- animals (out of 10) with tremor (rats; [15]): 3*
- animals (out of 10) with unilateral hemiptosis (rats; [15]): 3
- animals (out of 10) with circling movements (rats; [16]): 0*
- animals (out of 10) with lethargy, slowness of functions (rats; [16]): 2*
- animals (out of 10) with tremor (rats; [16]): 0*
- animals (out of 10) with unilateral hemiptosis (rats; [16]): 5
- animals (out of 10) with circling movements (rats; [17]): 0
- animals (out of 10) with lethargy, slowness of functions (rats; [17]): 1*
- animals (out of 10) with tremor (rats; [17]): 0
- animals (out of 10) with unilateral hemiptosis (rats; [17]): 3
- animals (out of 10) with circling movements (rats; [18]): 0*
- animals (out of 10) with lethargy, slowness of functions (rats; [18]): 2*
- animals (out of 10) with tremor (rats; [18]): 2*
- animals (out of 10) with unilateral hemiptosis (rats; [18]): 4
- animals (out of 10) with circling movements (rats; [19]): 0*
- animals (out of 10) with lethargy, slowness of functions (rats; [19]): 1*
- animals (out of 10) with tremor (rats; [19]): 0*
- animals (out of 10) with unilateral hemiptosis (rats; [19]): 5
- animals (out of 10) with circling movements (rats; [20]): 0
- animals (out of 10) with lethargy, slowness of functions (rats; [20]): 0*
- animals (out of 10) with tremor (rats; [20]): 0
- animals (out of 10) with unilateral hemiptosis (rats; [20]): 3
- reduction of pain sensitivity (mice [2]; 50 mg/kg, 30 minutes): 14.3%
- reduction of pain sensitivity (mice [2]; 50 mg/kg, 60 minutes): 8.3%
- reduction of pain sensitivity (mice [2]; 50 mg/kg, 120 minutes): 10.8%
- reduction of pain sensitivity (mice [2]; 100.0 mg/kg, 30 minutes): 12.4%
- reduction of pain sensitivity (mice [2]; 100.0 mg/kg, 60 minutes): 12.5%
- reduction of pain sensitivity (mice [2]; 100.0 mg/kg, 120 minutes): 31.5%
- reduction of pain sensitivity (mice [2]; 300.0 mg/kg, 30 minutes): 71.4%
- reduction of pain sensitivity (mice [2]; 300.0 mg/kg, 60 minutes): 61.5%
- Latent period (hot plate) (mice [2]; 50.0 mg/kg i.p., 30 min): 12.0 ± 1.1 min
- Latent period (hot plate) (mice [2]; 50.0 mg/kg i.p., 60 min): 11.7 ± 0.7 min
- Latent period (hot plate) (mice [2]; 50.0 mg/kg i.p., 120 min): 12.3 ± 0.8 min
- Latent period (hot plate) (mice [2]; 100.0 mg/kg i.p., 30 min): 11.8 ± 0.7^ min.
- Latent period (hot plate) (mice [2]; 100.0 mg/kg i.p., 60 min): 13.5 ± 1.4 min
- Latent period (hot plate) (mice [2]; 100.0 mg/kg i.p., 120 min): 14.6 ± 1.4 min
- Latent period (hot plate) (mice [2]; 300.0 mg/kg i.p., 30 min): 18.0 ± 1.0 min
- Latent period (hot plate) (mice [2]; 300.0 mg/kg i.p., 60 min): 18.2 ± 0.8 min
- Latent period (hot plate) (mice [2]; 300.0 mg/kg i.p., 120 min): 22.2 ± 1.0 min
- storage stability of sterile solutions (Stability during storage): at least 12 months
